In this experiment the target is T1, YkuR protein (Bacillus subtilis, UniProt O34916).
T1 construct: the full length ykuR gene product could be separated from internally digested gene product; made in house; host or cells: E. coli BL21 (pET24a)
The experiment is described as follows: YkuR surrogate fluorometric assay (sodium hippurate substrate). The format is biochemical, B. subtilis. The note with it: purified YkuR protein expressed in E. coli; phenanthroline added at increasing concentrations; FIG. 3. As to the method: A fluorometric assay for YkuR and its homologues has been developed using sodium hippurate (benzoyl glycine) as a substrate. Cleavage by YkuR releases free glycine which can be detected using F-phthaldialdehyde. The assay is performed in a total volume of 100 Fl per well in black 96 well microtitre plates. 40 Fl of YkuR protein 20 Fg/ml in 10 mM Hepes pH 6.8 containing 0.5 mM dithiothreitol and 10 mM potassium chloride) is added to the appropriate wells of a 96-well plate. Appropriate concentrations of test compounds dissolved in 20 Fl of 100% DMSO are added, followed by 40 Fl of hippuric acid (250 mM in 50 mM Hepes pH 6.8 containing 0.05% Brij 35). Control wells lack either enzyme or test compound. The reactions are incubated for 1 hour at 37 EC. Following incubation 100 Fl of OPA Reagent (20 mM F-phthaldialdehyde in 50 mM borate buffer pH 9.5 containing 0.1% $-mercaptoethanol) is added to each well. The fluorescence at 460 nm is measure with an SLT Fluostar fluorometer using 355 nm excitation.
Assay using purified YkuR protein expressed in E. coli as described above. Phenanthroline, a known inhibitor of metalloprotease enzyme activity, was added at increasing concentrations to inhibit metalloenzyme activity.

T1 sequence (O34916 whole entry): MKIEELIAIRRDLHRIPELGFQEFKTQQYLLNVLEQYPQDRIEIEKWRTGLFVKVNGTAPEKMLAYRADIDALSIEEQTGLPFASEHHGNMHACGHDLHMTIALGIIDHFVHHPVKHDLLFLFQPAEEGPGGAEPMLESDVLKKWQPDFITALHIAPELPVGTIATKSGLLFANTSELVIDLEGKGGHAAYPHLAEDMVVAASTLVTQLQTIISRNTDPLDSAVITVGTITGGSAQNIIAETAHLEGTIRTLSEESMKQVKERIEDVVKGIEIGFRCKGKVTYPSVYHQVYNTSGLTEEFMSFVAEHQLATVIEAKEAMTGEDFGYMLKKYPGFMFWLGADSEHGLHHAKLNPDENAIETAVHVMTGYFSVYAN

A word on the IC50: it is the midpoint of a concentration-inhibition curve. Turning to `c1cnc2c(c1)ccc1cccnc12` [Phenanthroline], the midpoint of inhibition, the IC50, lay at 96 µM. In other words, the double-digit micromolar range.

For the origin of these results see patent US20110212120A1, “Ykur polynucleotides and polypeptides” (VERNALIS (OXFORD) LIMITED, priority 2002, published 2011).
